For assay [1], the target named is T1, Glutamate carboxypeptidase II (GCPII) (Homo sapiens, UniProt Q04609).
T1 construct: gene FOLH1
Nature of the assay: LC/MS/MS enzymatic assay of Glu released from NAAG by purchased GCPII, 11-point IC50. It counts as biochemical.

The target in assay [2] is T1, Glutamate carboxypeptidase II (GCPII). Nature of the assay: LC/MS/MS measurement of Glu from GCPII cleavage of ([…]5 […]-labelled) NAAG. It counts as biochemical.

Structures are written as SMILES. Residues, ends and D or L forms follow the SMILES beside them.

T1 sequence (Q04609 whole entry): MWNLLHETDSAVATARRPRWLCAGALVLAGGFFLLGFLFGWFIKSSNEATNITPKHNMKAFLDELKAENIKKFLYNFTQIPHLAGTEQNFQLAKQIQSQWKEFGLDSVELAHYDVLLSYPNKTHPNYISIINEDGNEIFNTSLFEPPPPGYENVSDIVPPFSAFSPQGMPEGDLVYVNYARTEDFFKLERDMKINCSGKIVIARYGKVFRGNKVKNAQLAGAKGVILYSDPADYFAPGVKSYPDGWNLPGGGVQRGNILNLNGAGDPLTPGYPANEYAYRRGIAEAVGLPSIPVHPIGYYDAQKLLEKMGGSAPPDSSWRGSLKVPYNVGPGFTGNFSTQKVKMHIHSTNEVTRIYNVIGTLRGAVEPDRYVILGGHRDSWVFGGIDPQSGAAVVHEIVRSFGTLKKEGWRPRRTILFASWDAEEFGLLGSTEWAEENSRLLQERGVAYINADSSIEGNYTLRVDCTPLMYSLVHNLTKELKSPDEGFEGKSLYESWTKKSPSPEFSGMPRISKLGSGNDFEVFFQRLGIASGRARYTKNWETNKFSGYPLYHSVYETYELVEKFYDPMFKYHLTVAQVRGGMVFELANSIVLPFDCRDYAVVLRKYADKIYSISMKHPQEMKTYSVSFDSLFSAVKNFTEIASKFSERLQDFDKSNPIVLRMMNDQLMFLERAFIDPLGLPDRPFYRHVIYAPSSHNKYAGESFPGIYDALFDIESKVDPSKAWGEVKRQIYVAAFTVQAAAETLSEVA

For `N[C@@H](Cn1oc(=O)[nH]c1=O)C(=O)O` [quisqualic acid], the IC50 (as a rule, the concentration that gives 50% inhibition) in assay [1] worked out at 1.59 µM. Take `CC(=O)N[C@@H](CC(=O)O)C(=O)N[C@@H](CCC(=O)O)C(=O)O` [NAAG] (Ac-Asp-Glu-OH): the “LC/MS/MS measurement of Glu from GCPII cleavage of (13C5 15N-labelled) NAAG” value in assay [2] is “LC/MS/MS) method to directly measure Glu resulting from in vitro GCPII cleavage of NAAG”.

The values are drawn from PMC11737842, “Development of a high‐throughput dual‐stream liquid chromatography–tandem mass spectrometry method to screen for inhibitors of glutamate carboxypeptidase II” (Rapid Communications in Mass Spectrometry, 2024).
